Key:
5αR = conditions: cited from earlier work
5α-reductase (5αR) = target: T1, 5α-reductase (5αR) (Rattus norvegicus, UniProt P24008); test: 5αR activity assay (S9 rat liver homogenate, residual testosterone by HPLC); type: biochemical; conditions: cell-free system
T1 sequence (P24008 1-259): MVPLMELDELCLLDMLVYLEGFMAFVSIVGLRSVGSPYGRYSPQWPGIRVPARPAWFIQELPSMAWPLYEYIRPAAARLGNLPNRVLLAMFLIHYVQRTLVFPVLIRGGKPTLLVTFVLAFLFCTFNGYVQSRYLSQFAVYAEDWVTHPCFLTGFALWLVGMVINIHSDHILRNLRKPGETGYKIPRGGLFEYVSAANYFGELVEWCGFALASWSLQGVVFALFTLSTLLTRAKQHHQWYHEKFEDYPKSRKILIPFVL

castrated BPH model mice = test: Castrated benign prostatic hyperplasia (BPH) mouse model; type: in vivo; conditions: for testosterone-induced increase in seminal gland weight / testosterone-induced increase in ventral prostate size, length and width: 0.08% Fin, 1% TBE or 2% EA in drinking water, testosterone i.p. daily
[1] = qPCR, prostate and seminal glands

Molecule	inhibition of 5αR (5αR)	testosterone-induced increase in seminal gland weight (castrated BPH model mice)	testosterone-induced increase in ventral prostate size, length and width (castrated BPH model mice)	further results
1,2,3,6- or 1,2,4,6-tetra-O-galloyl-D-glucose [TGG]	inhibit 5αR			
O=c1oc2c(O)c(O)cc3c(=O)oc4c(O)c(O)cc1c4c23 [EA, ellagic acid]		negligible effects	negligible effects	inhibition of 5αR activity (5α-reductase (5αR)): weakly inhibited
CC(C)(C)NC(=O)[C@H]1CC[C@H]2[C@@H]3CC[C@H]4NC(=O)C=C[C@]4(C)[C@H]3CC[C@]12C [Fin, finasteride]		tended to inhibit	tended to inhibit	canalization and lumen formation in prostate gland (castrated BPH model mice; Masson's trichrome histology, 0.08% Fin or 1% TBE): suppressed; prostate basal cell proliferation, BrdU+ cells (castrated BPH model mice; immunohistochemistry, 0.08% Fin or 1% TBE): inhibited cell proliferation; PSA (Klkb1) expression (castrated BPH model mice; [1]): suppressed; TMPRSS2 expression (castrated BPH model mice; [1]): suppressed
O=C(O)c1cc(O)c(O)c(O)c1 [GA, gallic acid]				5αR inhibitory effects (5αR): does not exert 5αR inhibitory effects
O=C(O[C@@H]1O[C@@H]2COC(=O)c3cc(O)c(O)c(O)c3-c3c(cc(O)c(O)c3O)C(=O)O[C@H]2[C@H](OC(=O)c2cc(O)c(O)c(O)c2)[C@H]1OC(=O)c1cc(O)c(O)c(O)c1)c1cc(O)c(O)c(O)c1 [eugeniin]	inhibit 5αR			

— PMC10380868, “Trapa bispinosa Roxb. Pericarp Extract Exerts 5α-Reductase Inhibitory Activity in Castrated Benign Prostatic Hyperplasia Model Mice” (International Journal of Molecular Sciences, 2023)
